From PMC3026871 (Cancer chemotherapy and pharmacology, 2010)

Columns and labels:
[1] = Plasma pharmacokinetics in patients; conditions: for concentration at 24 h / concentration at 6 h: Cmin; for concentration at 24 h: 24 hours after the daily dose; for concentration at 6 h: 6 hours after the second dose
[2] = tested on: patients with advanced solid tumors; assay: Clinical response; format: in vivo, human; conditions: RECIST
[3] = tested on: alpha-1 subunit of the GABA-A receptor; conditions: ref Data on file, Millennium; cited from earlier work
[4] = ref Data on file, Millennium, cited from earlier work
[5] = human, plasma, oral, 10 mg, Mean (SD), QD-7D 10 mg, Day 7, steady state, n=4
[6] = human, plasma, oral, 20 mg, Mean (SD), QD-7D 20 mg, Day 7, steady state, n=3
[7] = human, plasma, oral, 25 mg, Mean (SD), QID-7D 25 mg, Day 7, Dose 2, steady state, n=6
[8] = human, plasma, oral, 30 mg, Mean (SD), QD-7D 30 mg, Day 7, steady state, n=6
[9] = human, plasma, oral, 35 mg, Mean (SD), QID-7D 35 mg, Day 7, Dose 2, steady state, n=3
[10] = human, plasma, oral, 40 mg, QD-7D 40 mg, Day 7, steady state, individual data, n=1
[11] = human, plasma, oral, 45 mg, Mean (SD), QID-7D 45 mg, Day 7, Dose 2, steady state, n=3
[12] = human, plasma, oral, 55 mg, Mean (SD), QID-7D 55 mg, Day 7, Dose 2, steady state, n=4
[13] = human, plasma, oral, 55 mg, Mean (SD), QID/M-7D 55 mg, Day 7, Dose 2, steady state, n=3
[14] = human, plasma, oral, 60 mg, Mean (SD), QID/M-7D 60 mg, Day 7, Dose 2, steady state, n=6
[15] = human, plasma, oral, 60 mg, Mean (SD), QID/M-14D 60 mg, Day 14, Dose 2, steady state, n=3
[16] = human, plasma, oral, 60 mg, QID/M-21D 60 mg, Day 21, Dose 2, steady state, individual data, n=1
[17] = human, plasma, oral, 70 mg, Mean (SD), QID/M-7D 70 mg, Day 7, Dose 2, steady state, n=3
[18] = human, plasma, oral, 80 mg, Mean (SD), QID/M-7D 80 mg, Day 7, Dose 2, steady state, n=3

## O=C(O)c1ccc(Nc2ncc3c(n2)-c2ccc(Cl)cc2C(c2c(F)cccc2F)=NC3)cc1 [MLN8054]
[1]; human, plasma, oral, 10 mg, AUC0–24, Mean (SD), QD-7D 10 mg, Day 7, steady state, n=4
  AUC(0-t): 7.53 µM·h
[1]; [5]
  Cmax: 724 nM
  concentration at 24 h: 154 nM
[1]; human, plasma, oral, 10 mg, Tmax, Mean (SD), QD-7D 10 mg, Day 7, steady state, n=4
  Tmax: 3.8 h
[1]; human, plasma, oral, 20 mg, AUC0–24, Mean (SD), QD-7D 20 mg, Day 7, steady state, n=3
  AUC(0-t): 13.5 µM·h
[1]; [6]
  Cmax: 1180 nM
  concentration at 24 h: 240 nM
[1]; human, plasma, oral, 20 mg, Tmax, Mean (SD), QD-7D 20 mg, Day 7, steady state, n=3
  Tmax: 3.3 h
[1]; human, plasma, oral, 25 mg, AUC0–24, Mean (SD), QID-7D 25 mg, Day 7, Dose 2, steady state, n=6
  AUC(0-t): 4.85 µM·h
[1]; [7]
  Cmax: 1050 nM
  concentration at 6 h: 720 nM
[1]; human, plasma, oral, 25 mg, Tmax, Mean (SD), QID-7D 25 mg, Day 7, Dose 2, steady state, n=6
  Tmax: 2.5 h
[1]; human, plasma, oral, 30 mg, AUC0–24, Mean (SD), QD-7D 30 mg, Day 7, steady state, n=6
  AUC(0-t): 28.2 µM·h
[1]; [8]
  Cmax: 2360 nM
  concentration at 24 h: 912 nM
[1]; human, plasma, oral, 30 mg, Tmax, Mean (SD), QD-7D 30 mg, Day 7, steady state, n=6
  Tmax: 3 h
[1]; human, plasma, oral, 35 mg, AUC0–24, Mean (SD), QID-7D 35 mg, Day 7, Dose 2, steady state, n=3
  AUC(0-t): 9.71 µM·h
[1]; [9]
  Cmax: 1970 nM
  concentration at 6 h: 1460 nM
[1]; human, plasma, oral, 35 mg, Tmax, Mean (SD), QID-7D 35 mg, Day 7, Dose 2, steady state, n=3
  Tmax: 1.5 h
[1]; human, plasma, oral, 40 mg, AUC0–24, QD-7D 40 mg, Day 7, steady state, individual data, n=1
  AUC(0-t): 24.2 µM·h
[1]; [10]
  Cmax: 3040 nM
  concentration at 24 h: 461 nM
[1]; human, plasma, oral, 40 mg, Tmax, QD-7D 40 mg, Day 7, steady state, individual data, n=1
  Tmax: 1 h
[1]; human, plasma, oral, 45 mg, AUC0–24, Mean (SD), QID-7D 45 mg, Day 7, Dose 2, steady state, n=3
  AUC(0-t): 7.55 µM·h
[1]; [11]
  Cmax: 1530 nM
  concentration at 6 h: 1140 nM
[1]; human, plasma, oral, 45 mg, Tmax, Mean (SD), QID-7D 45 mg, Day 7, Dose 2, steady state, n=3
  Tmax: 0.8 h
[1]; human, plasma, oral, 55 mg, AUC0–24, Mean (SD), QID-7D 55 mg, Day 7, Dose 2, steady state, n=4
  AUC(0-t): 12.5 µM·h
[1]; human, plasma, oral, 55 mg, AUC0–24, Mean (SD), QID/M-7D 55 mg, Day 7, Dose 2, steady state, n=3
  AUC(0-t): 10.7 µM·h
[1]; [12]
  Cmax: 2480 nM
  concentration at 6 h: 1800 nM
[1]; [13]
  Cmax: 2310 nM
  concentration at 6 h: 1310 nM
[1]; human, plasma, oral, 55 mg, Tmax, Mean (SD), QID-7D 55 mg, Day 7, Dose 2, steady state, n=4
  Tmax: 1.2 h
[1]; human, plasma, oral, 55 mg, Tmax, Mean (SD), QID/M-7D 55 mg, Day 7, Dose 2, steady state, n=3
  Tmax: 1 h
[1]; human, plasma, oral, 60 mg, AUC0–24, Mean (SD), QID/M-7D 60 mg, Day 7, Dose 2, steady state, n=6
  AUC(0-t): 8.38 µM·h
[1]; human, plasma, oral, 60 mg, AUC0–24, Mean (SD), QID/M-14D 60 mg, Day 14, Dose 2, steady state, n=3
  AUC(0-t): 13.2 µM·h
[1]; human, plasma, oral, 60 mg, AUC0–24, QID/M-21D 60 mg, Day 21, Dose 2, steady state, individual data, n=1
  AUC(0-t): 7.03 µM·h
[1]; [14]
  Cmax: 1950 nM
  concentration at 6 h: 1090 nM
[1]; [15]
  Cmax: 2640 nM
  concentration at 6 h: 2070 nM
[1]; [16]
  Cmax: 1500 nM
  concentration at 6 h: 945 nM
[1]; human, plasma, oral, 60 mg, Tmax, Mean (SD), QID/M-7D 60 mg, Day 7, Dose 2, steady state, n=6
  Tmax: 1.3 h
[1]; human, plasma, oral, 60 mg, Tmax, Mean (SD), QID/M-14D 60 mg, Day 14, Dose 2, steady state, n=3
  Tmax: 2.3 h
[1]; human, plasma, oral, 60 mg, Tmax, QID/M-21D 60 mg, Day 21, Dose 2, steady state, individual data, n=1
  Tmax: 1 h
[1]; human, plasma, oral, 70 mg, AUC0–24, Mean (SD), QID/M-7D 70 mg, Day 7, Dose 2, steady state, n=3
  AUC(0-t): 15.2 µM·h
[1]; [17]
  Cmax: 3280 nM
  concentration at 6 h: 1950 nM
[1]; human, plasma, oral, 70 mg, Tmax, Mean (SD), QID/M-7D 70 mg, Day 7, Dose 2, steady state, n=3
  Tmax: 1.5 h
[1]; human, plasma, oral, 70 mg, mean plasma MLN8054 concentration maintained over the course of treatment, QID/M-7D 70 mg cohort
  concentration at 7 days: 2000 nM
[1]; human, plasma, oral, 80 mg, AUC0–24, Mean (SD), QID/M-7D 80 mg, Day 7, Dose 2, steady state, n=3
  AUC(0-t): 10.1 µM·h
[1]; [18]
  Cmax: 2130 nM
  concentration at 6 h: 1670 nM
[1]; human, plasma, oral, 80 mg, Tmax, Mean (SD), QID/M-7D 80 mg, Day 7, Dose 2, steady state, n=3
  Tmax: 1 h
[1]; human, plasma, po
  half-life: 30 to 40 h
[1]; human, plasma, po, Tmax (range across cohorts), patients, across cohorts
  Tmax: 1 to 4 h
[1]; of the 48 patients with sufficient data to estimate pharmacokinetic parameters
  patients with trough MLN8054 concentrations >2000 nM: 7 patients
[2]; 3 patients
  patients with stable disease for greater than 6 cycles: 5%
[2]; 5–80 mg per day for 7, 14 or 21 days
  complete or partial responses: No complete or partial responses were seen
[2]; nine patients, all cohorts
  patients with stable disease for at least 4 cycles: 15%
[3]
  binding to the alpha-1 subunit of the GABA-A receptor: high-affinity binding
[4]; human liver S9 fractions
  major phase 1 biotransformation pathway: Hydroxylation of the azepine moiety
  predominant mechanism of biotransformation: Glucuronidation of the carboxylate moiety of MLN8054 to an acyl glucuronide
[4]
  enzymes mediating biotransformation: Glucuronidation was mediated by UGT1 and UGT2 and hydroxylation by CYP1A2, 2C9, 2C19, 2D6, and 3A4
